Laboratory results from the CheMixHub viscosity set.
Several values for one entry are separate records, joined by “and”; a condition that tells them apart may be missing. Equal values may be shown once.

Assay: xn = mol fraction of the nth substance listed

CNCCO + CCCCOCCO
viscosity, 101.3 kPa
Conditions | 293.15 K | 298.15 K | 303.15 K | 308.15 K | 313.15 K | 318.15 K | 323.15 K
x1 = 0.149 | 4.016 mPa·s | 3.469 mPa·s | 3.02 mPa·s | 2.649 mPa·s | 2.339 mPa·s | 2.077 mPa·s | 1.856 mPa·s
x1 = 0.403 | 5.748 mPa·s | 4.862 mPa·s | 4.158 mPa·s | 3.584 mPa·s | 3.112 mPa·s | 2.725 mPa·s | 2.401 mPa·s
x1 = 0.512 | 6.672 mPa·s and 6.73 mPa·s | 5.591 mPa·s and 5.64 mPa·s | 4.739 mPa·s and 4.78 mPa·s | 4.054 mPa·s and 4.09 mPa·s | 3.5 mPa·s and 3.53 mPa·s | 3.045 mPa·s and 3.07 mPa·s | 2.667 mPa·s and 2.69 mPa·s
x1 = 0.611 | 7.632 mPa·s | 6.341 mPa·s | 5.331 mPa·s | 4.528 mPa·s | 3.883 mPa·s | 3.358 mPa·s | 2.926 mPa·s
x1 = 0.702 | 8.54 mPa·s | 7.04 mPa·s | 5.87 mPa·s | 4.95 mPa·s | 4.22 mPa·s | 3.63 mPa·s | 3.15 mPa·s
x1 = 0.786 | 9.713 mPa·s | 7.929 mPa·s | 6.563 mPa·s | 5.498 mPa·s | 4.657 mPa·s | 3.983 mPa·s | 3.436 mPa·s
x1 = 0.934 | 12.07 mPa·s | 9.674 mPa·s | 7.893 mPa·s | 6.525 mPa·s | 5.461 mPa·s | 4.621 mPa·s | 3.948 mPa·s

CC(C)CCO + CC(C)CC(C)(C)C
298.15 K, 101 kPa
Conditions | viscosity [mPa·s]
x2 = 0.0685 | 3.063
x2 = 0.1336 | 2.496
x2 = 0.1409 | 2.428
x2 = 0.2215 | 1.908
x2 = 0.2866 | 1.576
x2 = 0.311 | 1.471
x2 = 0.352 | 1.326
x2 = 0.4007 | 1.178
x2 = 0.4038 | 1.175
x2 = 0.4505 | 1.051
x2 = 0.4937 | 0.967
x2 = 0.5321 | 0.896
x2 = 0.6132 | 0.772
x2 = 0.6488 | 0.723
x2 = 0.7255 | 0.642
x2 = 0.782 | 0.595
x2 = 0.818 | 0.564
x2 = 0.857 | 0.544
x2 = 0.9105 | 0.512
x2 = 0.9545 | 0.494

CCOCCO + Cc1ccccc1
viscosity [mPa·s], 101 kPa
Conditions | 298.15 K | 308.15 K
x1 = 0.056 | 0.576 | 0.517
x1 = 0.1494 | 0.627 | 0.554
x1 = 0.2493 | 0.69 | 0.601
x1 = 0.3539 | 0.771 | 0.66
x1 = 0.449 | 0.859 | 0.723
x1 = 0.5019 | 0.915 | 0.763
x1 = 0.5488 | 0.969 | 0.802
x1 = 0.6514 | 1.107 | 0.899
x1 = 0.7465 | 1.261 | 1.007
x1 = 0.8514 | 1.468 | 1.149
x1 = 0.9527 | 1.716 | 1.317

CCOCCO + OCCOCCOCCO
101 kPa
Conditions | viscosity [mPa·s]
293.15 K, x1 = 0.0493 | 36.7
293.15 K, x1 = 0.1039 | 32.11
293.15 K, x1 = 0.1964 | 25.21
293.15 K, x1 = 0.3004 | 18.99
293.15 K, x1 = 0.3949 | 14.53
293.15 K, x1 = 0.4468 | 12.49
293.15 K, x1 = 0.5005 | 10.66
293.15 K, x1 = 0.5512 | 9.194
293.15 K, x1 = 0.6003 | 7.883
293.15 K, x1 = 0.7017 | 5.752
293.15 K, x1 = 0.7946 | 4.246
293.15 K, x1 = 0.9032 | 2.957
293.15 K, x1 = 0.941 | 2.603
298.15 K, x1 = 0.0425 | 31.4
298.15 K, x1 = 0.1132 | 26.58
298.15 K, x1 = 0.198 | 21.56
298.15 K, x1 = 0.2956 | 16.85
298.15 K, x1 = 0.3992 | 12.84
298.15 K, x1 = 0.4535 | 11.09
298.15 K, x1 = 0.5008 | 9.696
298.15 K, x1 = 0.5433 | 8.635
298.15 K, x1 = 0.5935 | 7.463
298.15 K, x1 = 0.69 | 5.545
298.15 K, x1 = 0.8038 | 3.871
298.15 K, x1 = 0.8966 | 2.774
298.15 K, x1 = 0.95 | 2.248
303.15 K, x1 = 0.0543 | 26.39
303.15 K, x1 = 0.0954 | 24.22
303.15 K, x1 = 0.2034 | 19.01
303.15 K, x1 = 0.2991 | 15.11
303.15 K, x1 = 0.4003 | 11.78
303.15 K, x1 = 0.4492 | 10.39
303.15 K, x1 = 0.5007 | 9.084
303.15 K, x1 = 0.5429 | 8.086
303.15 K, x1 = 0.5978 | 6.967
303.15 K, x1 = 0.6987 | 5.187
303.15 K, x1 = 0.8008 | 3.732
303.15 K, x1 = 0.9005 | 2.597
303.15 K, x1 = 0.95 | 2.081

CNC(C)=O + O=C1CCCO1
viscosity [mPa·s], 101 kPa
Conditions | x1 = 0.0549 | x1 = 0.1816 | x1 = 0.2715 | x1 = 0.3602 | x1 = 0.4477 | x1 = 0.5352 | x1 = 0.6411 | x1 = 0.7239 | x1 = 0.9033
303.15 K | 1.516 | 1.586 | 1.642 | 1.719 | 1.82 | 1.99 | 2.215 | 2.45 | 3.147
308.15 K | 1.408 | 1.452 | 1.51 | 1.572 | 1.662 | 1.78 | 1.979 | 2.178 | 2.799
313.15 K | 1.338 | 1.343 | 1.393 | 1.447 | 1.521 | 1.626 | 1.805 | 1.967 | 2.515
318.15 K | 1.213 | 1.247 | 1.281 | 1.334 | 1.403 | 1.514 | 1.665 | 1.8 | 2.226

CNC(C)=O + CC(=O)c1ccccc1
308.15 K, 101 kPa
Conditions | viscosity [mPa·s]
x2 = 0.0686 | 3.109
x2 = 0.138 | 2.919
x2 = 0.2189 | 2.657
x2 = 0.3143 | 2.397
x2 = 0.3938 | 2.199
x2 = 0.4912 | 1.965
x2 = 0.6042 | 1.747
x2 = 0.7227 | 1.561
x2 = 0.8517 | 1.455

CC12CCC(CC1=O)C2(C)C (stereo not given) + CCCCCCCCCCO
101.33 kPa, x2 = 0.7
Conditions | viscosity [mPa·s]
298.15 K | 12.14
303.15 K | 10.24
308.05 K | 8.898
313.15 K | 7.817
318.05 K | 6.806
323.05 K | 5.915

Cc1cccc(Cl)c1 + OC1CCCCC1
303.15 K, 101 kPa
Conditions | viscosity [mPa·s]
x2 = 0.1126 | 5.006
x2 = 0.222 | 9.158
x2 = 0.3285 | 13.26
x2 = 0.4321 | 17.37
x2 = 0.533 | 21.44
x2 = 0.6313 | 25.48
x2 = 0.727 | 29.41
x2 = 0.8203 | 33.31
x2 = 0.9113 | 37.2

O=S(=O)([O-])c1ccc(Cl)cc1.[Na+] + O
viscosity [mPa·s], 101 kPa
Conditions | x1 = 9e-05 | x1 = 0.00018 | x1 = 0.0009 | x1 = 0.0018 | x1 = 0.00448 | x1 = 0.00893 | x1 = 0.0133 | x1 = 0.0177
298.15 K | 0.899 | 0.9 | 0.916 | 0.939 | 1 | 1.103 | 1.219 | –
318.15 K | 0.598 | 0.599 | 0.608 | 0.623 | 0.659 | 0.723 | 0.793 | 0.869

CC[N+](CC)(CC)CC.[Br-] + O
298.15 K, 101 kPa
Conditions | viscosity [mPa·s]
x1 = 0.0009 | 0.8894
x1 = 0.0089 | 1.059
x1 = 0.0177 | 1.314
x1 = 0.0348 | 2.397

CNC(C)=O + CCCCN
308.15 K, 101 kPa
Conditions | viscosity [mPa·s]
x1 = 0.0335 | 0.414
x1 = 0.1849 | 0.5985
x1 = 0.3822 | 0.9135
x1 = 0.4385 | 1.049
x1 = 0.5671 | 1.387
x1 = 0.6888 | 1.829
x1 = 0.7756 | 2.15
x1 = 0.8792 | 2.675
x1 = 0.9781 | 3.172

CCOCCO + C1CCOC1
viscosity [mPa·s], 101.33 kPa
Conditions | x1 = 0.1003 | x1 = 0.2025 | x1 = 0.3008 | x1 = 0.403 | x1 = 0.5069 | x1 = 0.6012 | x1 = 0.7048 | x1 = 0.7983 | x1 = 0.8839
298.15 K | 0.593 | 0.677 | 0.787 | 0.908 | 1.057 | 1.232 | 1.503 | 1.701 | 1.898
303.15 K | 0.502 | 0.571 | 0.66 | 0.756 | 0.874 | 1.011 | 1.223 | 1.381 | 1.546
308.15 K | 0.475 | 0.539 | 0.618 | 0.702 | 0.808 | 0.93 | 1.091 | 1.242 | 1.385
